Patent US9555045B2, “Use of prostaglandins F2alpha and analogues for the healing of corneal and conjunctival lesions” (SANTEN SAS, priority 2009, dated 2017)

System: Sprague-Dawley rats
Conditions: rat
Description: Brief description of the protocol: 16 male Sprague-Dawley rats weighting 100 to 125 g were randomly assigned to 4 groups (4 rats per group (Gp)): Gp1, Phosphate buffer solution (PBS); Gp2, 0.02% benzalkonium chloride (BAK); Gp3, Xalatan®; Gp4, Latanoprost Emulsion. Following general and local anesthesia with ketamine/xylazine and topical Oxybucaïne, respectively, the upper part of the right eye cornea of each rat was scraped with a surgical scalpel following an application of 50 μl of 50% ethanol solution. The upper corneal and limbal epithelia were removed (at day D0). One drop of Tobrex was instilled immediately after the scraping. 2 and 5 hours post scraping one drop of the different test articles were applied onto the cornea of the right eye. These latter instillations were repeated every day for 4 days, and corneal evaluation with an in vivo confocal microscope (IVCM-HRT) was performed on day 4 after the last instillation. At the end of the experimental procedure (the total duration of the treatment is 5 days; from day D0 to D4), the animals were sacrificed and the eyes harvested to characterize the histological organisation of the treated cornea.

IVCM (in vivo confocal microscopy) of superficial epithelium: scar tissue / hypereflectivity: corneal edema and tissue disorganisation
Substance: benzalkonium chloride [0.02% BAK solution]
Hematoxylin-eosin staining of treated cornea (epithelium thinning, edema, inflammatory infiltrates) (in vivo): edemas and inflammatory infiltrates are particularly obvious
